Laboratory results reported in patent publication US20130197205A1, “CHITOSAN COVALENTLY LINKED WITH SMALL MOLECULE INTEGRIN ANTAGONIST FOR TARGETED DELIVERY” (Hoffmann-La Roche Inc., priority 2012, published 2013).
Like-named read-outs stand apart in the source and are kept apart here.

Biological target: T1, αvβ3 (Homo sapiens, UniProt P05106+P06756, DEL719-788)
T1 construct: purchased R & D 3050-AV
Test: Human αVβ3 solid phase assay (fibrinogen binding)
Settings: αvβ3-coated plates, fibrinogen as ligand
Experimental: Buffer used was Buffer A: 20 mM Tris, 150 mM NaCl, 1 mM CaCl2, 1 mM MgCl2, pH 7.4. […] After blocking, plates were washed 5 times with 200 uL of Buffer B (Buffer A+1 mM MnCl2). […] Plates were shaken for 2 minutes, and then incubated for 2 hours for 37° C. […] After the addition of 1st antibody and after the addition of 2nd antibody, plates were shaken for 2 minutes and incubated for 60 minutes at 37° C., and then washed 5 times with 200 uL of Buffer B correspondingly. […] Plates were shaken at RT for 5-8 min, and the development of a green color was gradually showing. After being added 100 uL/well Stop Buffer (1.0 M Phosphoric Acid ([…])), plates were read on Envision at Absorbance mode 450 nm.

T1 sequence (P06756 31-992 limits assumed, stated change not applied): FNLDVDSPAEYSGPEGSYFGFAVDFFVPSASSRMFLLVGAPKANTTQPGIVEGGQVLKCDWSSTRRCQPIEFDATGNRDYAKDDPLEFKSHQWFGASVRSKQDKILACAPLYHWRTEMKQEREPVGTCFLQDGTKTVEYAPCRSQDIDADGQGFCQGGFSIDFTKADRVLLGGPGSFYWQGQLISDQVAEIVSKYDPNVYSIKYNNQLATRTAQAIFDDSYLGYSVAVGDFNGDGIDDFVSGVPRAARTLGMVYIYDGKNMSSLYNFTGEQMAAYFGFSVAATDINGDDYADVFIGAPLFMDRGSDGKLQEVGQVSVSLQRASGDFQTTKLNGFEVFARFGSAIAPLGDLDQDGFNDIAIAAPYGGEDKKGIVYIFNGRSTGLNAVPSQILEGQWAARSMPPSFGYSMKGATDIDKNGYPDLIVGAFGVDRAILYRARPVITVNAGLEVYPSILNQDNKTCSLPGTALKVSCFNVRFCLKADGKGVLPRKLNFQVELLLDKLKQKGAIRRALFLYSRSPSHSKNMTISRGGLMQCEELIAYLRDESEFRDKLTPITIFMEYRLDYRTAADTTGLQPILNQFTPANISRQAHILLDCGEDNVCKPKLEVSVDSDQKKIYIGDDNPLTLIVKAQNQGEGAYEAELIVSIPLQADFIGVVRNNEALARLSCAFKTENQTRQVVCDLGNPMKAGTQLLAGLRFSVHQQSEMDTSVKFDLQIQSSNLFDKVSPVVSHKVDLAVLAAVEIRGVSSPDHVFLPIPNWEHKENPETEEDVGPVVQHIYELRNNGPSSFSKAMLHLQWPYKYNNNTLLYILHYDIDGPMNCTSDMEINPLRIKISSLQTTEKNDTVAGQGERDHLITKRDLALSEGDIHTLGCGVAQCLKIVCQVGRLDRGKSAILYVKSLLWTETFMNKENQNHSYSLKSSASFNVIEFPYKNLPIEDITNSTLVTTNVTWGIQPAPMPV
T1 sequence (P05106 27-718 limits assumed, stated change not applied): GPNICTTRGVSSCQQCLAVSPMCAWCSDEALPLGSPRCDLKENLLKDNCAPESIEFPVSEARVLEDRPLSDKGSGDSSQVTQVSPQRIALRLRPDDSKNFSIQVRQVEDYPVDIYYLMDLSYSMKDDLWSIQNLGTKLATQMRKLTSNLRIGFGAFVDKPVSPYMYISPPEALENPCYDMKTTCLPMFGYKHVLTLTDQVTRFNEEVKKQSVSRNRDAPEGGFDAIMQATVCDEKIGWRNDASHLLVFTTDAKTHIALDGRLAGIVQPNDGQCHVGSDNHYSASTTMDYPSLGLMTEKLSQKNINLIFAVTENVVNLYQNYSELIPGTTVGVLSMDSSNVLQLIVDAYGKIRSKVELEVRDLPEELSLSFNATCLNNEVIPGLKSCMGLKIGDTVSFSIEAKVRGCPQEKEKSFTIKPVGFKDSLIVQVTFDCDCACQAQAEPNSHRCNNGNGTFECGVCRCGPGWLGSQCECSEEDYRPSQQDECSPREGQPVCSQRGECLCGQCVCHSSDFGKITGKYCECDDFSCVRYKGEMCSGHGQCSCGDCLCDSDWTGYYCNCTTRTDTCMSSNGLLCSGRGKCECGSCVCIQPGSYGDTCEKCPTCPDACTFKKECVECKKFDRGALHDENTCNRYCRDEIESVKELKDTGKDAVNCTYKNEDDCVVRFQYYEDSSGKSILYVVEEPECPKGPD

COc1ccc(NC(=O)[C@H](CC(=O)O)NC(=O)CNC(=O)c2cccc(N=C(N)N)c2)cc1 [compound 28]
IC50 (read-out: Binding IC50): 2 nM | IC50 (read-out: IC50 of control compound): ~2 nM
